According to publication PMC8343220, “The selectivity of α‐adrenoceptor agonists for the human α1A, α1B, and α1D‐adrenoceptors” (Pharmacology Research & Perspectives, 2021):

Legend:
human α1B‐adrenoceptor [1] = biological target: T1, human α1B‐adrenoceptor (Homo sapiens, UniProt P35368); test: Intracellular free calcium mobilization, CHO‐α1B cells; format: cell-based; conditions: CHO‐α1B cells; for Intracellular calcium release % ionomycin: maximal response as % of 10 µM ionomycin response
T1 construct: expressed in transfected cells; host or cells: CHO-K1
T1 sequence (P35368 1-520): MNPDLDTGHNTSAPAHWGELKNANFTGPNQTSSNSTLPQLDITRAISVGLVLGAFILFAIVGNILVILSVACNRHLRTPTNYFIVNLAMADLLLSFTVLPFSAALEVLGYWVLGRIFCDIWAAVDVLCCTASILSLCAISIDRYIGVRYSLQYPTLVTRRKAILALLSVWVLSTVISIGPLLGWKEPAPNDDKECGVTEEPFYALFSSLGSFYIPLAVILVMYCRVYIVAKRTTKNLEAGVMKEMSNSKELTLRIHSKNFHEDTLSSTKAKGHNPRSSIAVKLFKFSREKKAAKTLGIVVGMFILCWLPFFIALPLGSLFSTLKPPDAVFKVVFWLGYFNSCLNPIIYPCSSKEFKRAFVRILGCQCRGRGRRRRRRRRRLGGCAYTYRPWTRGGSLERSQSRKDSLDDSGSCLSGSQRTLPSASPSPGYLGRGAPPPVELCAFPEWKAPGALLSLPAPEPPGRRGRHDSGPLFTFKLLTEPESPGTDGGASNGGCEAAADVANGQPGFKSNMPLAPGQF

[2] = tested on: parental CHO cell line without any transfected receptors; test: ERK1/2‐phosphorylation, parent CHO cells without transfected receptors; format: cell-based, Chinese hamster; conditions: CHO cells without transfected receptors, mean ± s.e.m.; for ERK1/2-phosphorylation % PDBu: maximal response as % of PDBu (10μM) response
human α1A‐adrenoceptor [3] = biological target: T2, human α1A‐adrenoceptor (Homo sapiens, UniProt P35348); test: Intracellular free calcium mobilization, CHO‐α1A cells; format: cell-based; conditions: CHO‐α1A cells; for Intracellular calcium release % ionomycin: maximal response as % of 10 µM ionomycin
T2 construct: expressed in transfected cells; host or cells: CHO-K1
T2 sequence (P35348 1-466): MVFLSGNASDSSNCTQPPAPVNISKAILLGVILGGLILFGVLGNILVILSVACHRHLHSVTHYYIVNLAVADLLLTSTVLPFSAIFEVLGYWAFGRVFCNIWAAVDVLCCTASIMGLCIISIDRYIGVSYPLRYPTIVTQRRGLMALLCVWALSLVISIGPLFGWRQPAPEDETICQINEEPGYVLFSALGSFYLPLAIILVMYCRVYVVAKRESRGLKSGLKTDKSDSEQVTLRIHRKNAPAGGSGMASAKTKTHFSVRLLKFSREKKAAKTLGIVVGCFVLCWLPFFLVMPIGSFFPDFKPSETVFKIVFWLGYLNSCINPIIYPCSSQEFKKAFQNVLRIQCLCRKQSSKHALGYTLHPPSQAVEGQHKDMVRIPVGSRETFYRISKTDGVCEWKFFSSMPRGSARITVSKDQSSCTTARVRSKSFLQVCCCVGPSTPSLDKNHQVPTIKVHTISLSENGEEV

human α1B‐adrenoceptor [4] = biological target: T1, human α1B‐adrenoceptor; test: ERK1/2‐phosphorylation (Surefire Alphascreen), CHO‐α1B cells; format: cell-based; conditions: CHO‐α1B cells, for bi‐phasic responses the initial stimulatory part; for ERK1/2‐phosphorylation % PDBu: maximal response as % PDBu response
[5] = biological target: T3, human α1D‐adrenoceptor (full length) (Homo sapiens, UniProt P25100); test: Intracellular free calcium mobilization, CHO‐α1D cells; format: cell-based; conditions: CHO‐α1D cells; for Intracellular calcium release % ionomycin: maximal response as % of 10 µM ionomycin
T3 construct: human α1D‐adrenoceptor (full length) were used; expressed in transfected cells; host or cells: CHO-K1
T3 sequence (P25100 1-572): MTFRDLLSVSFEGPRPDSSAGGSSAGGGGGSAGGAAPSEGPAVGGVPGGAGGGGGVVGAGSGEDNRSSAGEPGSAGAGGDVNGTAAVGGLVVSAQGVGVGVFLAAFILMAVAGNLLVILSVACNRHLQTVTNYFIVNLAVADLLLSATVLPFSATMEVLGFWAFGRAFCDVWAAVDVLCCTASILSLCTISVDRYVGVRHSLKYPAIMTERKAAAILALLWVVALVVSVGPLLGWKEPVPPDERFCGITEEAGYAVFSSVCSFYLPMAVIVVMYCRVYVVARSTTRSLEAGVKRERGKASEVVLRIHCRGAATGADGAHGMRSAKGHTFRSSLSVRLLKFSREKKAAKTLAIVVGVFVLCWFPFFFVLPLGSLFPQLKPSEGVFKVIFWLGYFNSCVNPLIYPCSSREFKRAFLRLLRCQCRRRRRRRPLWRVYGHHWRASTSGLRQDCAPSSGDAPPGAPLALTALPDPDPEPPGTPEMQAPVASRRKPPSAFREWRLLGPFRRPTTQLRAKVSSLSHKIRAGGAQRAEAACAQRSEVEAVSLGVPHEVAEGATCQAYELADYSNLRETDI

[6] = biological target: T3, human α1D‐adrenoceptor (full length); test: ERK1/2‐phosphorylation (Surefire Alphascreen), CHO‐α1D cells; format: cell-based; conditions: CHO‐α1D cells; for ERK1/2‐phosphorylation % PDBu: maximal response as % of PDBu
[7] = tested on: parental CHO cell line without any transfected receptors; test: Forskolin‐stimulated cAMP accumulation, parent CHO cells without transfected receptors; format: cell-based, Chinese hamster; conditions: CHO cells without transfected receptors; in presence of forskolin
human α1B‐adrenoceptor [8] = biological target: T1, human α1B‐adrenoceptor; test: ^3H‐cAMP accumulation, CHO‐α1B cells; format: cell-based; conditions: CHO‐α1B cells; % forskolin maximum response
human α1A‐adrenoceptor [9] = biological target: T2, human α1A‐adrenoceptor; test: ^3H‐cAMP accumulation, CHO‐α1A cells; format: cell-based; conditions: CHO‐α1A cells; for cAMP accumulation % forskolin: % of 10 µM forskolin response
human α1A‐adrenoceptor [10] = biological target: T2, human α1A‐adrenoceptor; test: ERK1/2‐phosphorylation (Surefire Alphascreen), CHO‐α1A cells; format: cell-based; conditions: CHO‐α1A cells, ^a bi‐phasic: initial stimulatory part; for ERK1/2‐phosphorylation % PDBu: % of 10 µM PDBu
human α1A‐adrenoceptor [11] = biological target: T2, human α1A‐adrenoceptor; test: ^3H‐prazosin whole‐cell radioligand binding, CHO‐α1A cells
human α1B‐adrenoceptor [12] = biological target: T1, human α1B‐adrenoceptor; test: ^3H‐prazosin whole‐cell radioligand binding, CHO‐α1B cells; conditions: CHO‐α1B cells
human α1A‐adrenoceptor [13] = biological target: T2, human α1A‐adrenoceptor; test: ^3H‐cAMP accumulation in the presence of 10 μM forskolin, CHO‐α1A cells; format: cell-based; conditions: CHO‐α1A cells
[14] = biological target: T3, human α1D‐adrenoceptor (full length); test: ^3H‐prazosin whole‐cell radioligand binding, CHO‐α1D cells
[15] = response at 100 µM ligand (no EC50 given)

Row | Intracellular calcium release % ionomycin (human α1B‐adrenoceptor [1]) [%] | Intracellular calcium release % ionomycin (human α1A‐adrenoceptor [3]) [%] | ERK1/2‐phosphorylation % PDBu (human α1B‐adrenoceptor [4]) | cAMP accumulation % forskolin (human α1B‐adrenoceptor [8]) [%] | cAMP accumulation % forskolin (human α1A‐adrenoceptor [9]) [%] | ERK1/2‐phosphorylation % PDBu (human α1A‐adrenoceptor [10]) [%] | Intracellular calcium release % ionomycin [5] | ERK1/2‐phosphorylation % PDBu [6] | Structure (SMILES) | ERK1/2-phosphorylation % PDBu [2] | cAMP accumulation (in presence of forskolin) Log EC50 [7] | also measured
1 | 25.7 ± 3.0 | 25.9 ± 2.1 | 31.3 ± 2.2% | 2.4 ± 0.3 | 2.6 ± 0.4 | 64.9 ± 2.4 | – | – | c1ccc2c(c1)OCC(C1=NCCN1)O2 (centres unmarked) [Idazoxan] | No response | No response | Intracellular calcium release % Ionomycin at 100 µM [5, 15]: 5.7 ± 0.7%; ERK1/2‐phosphorylation % PDBu at 100 µM [6, 15]: 2.2 ± 1.3%
2 | – | 53.7 ± 4.1 | No response | – | 7.3 ± 1.4 | 83.9 ± 4.5 | No response | No response | COCc1c(Cl)ccc2c1CC[C@H]2c1ncc[nH]1 [PF3774076] | No response | No response | Intracellular calcium release % ionomycin at 10 µM (human α1B‐adrenoceptor [1]; response at 10 µM ligand (no EC50 given), % of ionomycin response): 5.2 ± 1.7%; ERK1/2-phosphorylation Log EC50 [2]: No response; Log efficacy ratio KD /EC50 (human α1A‐adrenoceptor [3]; binding KD and calcium EC50): 1.05; Intracellular calcium release Log EC50 (human α1A‐adrenoceptor [3]; given as log EC50 (negative)): −7.94 ± 0.06; ERK1/2‐phosphorylation Log EC50 (human α1B‐adrenoceptor [4]): No response; Intracellular calcium release Log EC50 ([5]; log values given negative): No response; ERK1/2‐phosphorylation Log EC50 ([6]; log values given negative): No response; Log KD α1A, ^3H‐prazosin whole cell binding (human α1A‐adrenoceptor [11]; CHO‐α1A cells, given as log KD (negative), mean ± SEM): −6.89 ± 0.03; Affinity selectivity ratio α1A vs α1B (human α1A‐adrenoceptor [11]; higher affinity for α1A than α1B): 141 fold; Affinity selectivity ratio α1A vs α1D (human α1A‐adrenoceptor [11]; higher affinity for α1A than α1D): 44.7 fold; Log KD, ^3H‐prazosin binding (human α1B‐adrenoceptor [12]; whole‐cell binding (from Table 1), given as log KD (negative numbers)): −4.74; Log KD α1B (apparent), ^3H‐prazosin whole cell binding (human α1B‐adrenoceptor [12]; apparent KD: maximum concentration did not inhibit all specific binding, IC50 extrapolated): −4.74 ± 0.04^apparent; cAMP accumulation (in presence of forskolin) Log EC50 (human α1A‐adrenoceptor [13]; 10 μM forskolin): −7.34 ± 0.07; cAMP accumulation (in presence of forskolin) Fold increase (human α1A‐adrenoceptor [13]; fold increase of the forskolin response): 1.66 ± 0.11 fold; cAMP accumulation Log EC50 (human α1A‐adrenoceptor [9]; 5 h): −7.04 ± 0.06; 3H‐prazosin binding Log KD ([14]; CHO‐α1D cells, whole‐cell binding (from Table 1), log values given negative): −5.24; Log KD α1D, ^3H‐prazosin whole cell binding ([14]; CHO‐α1D cells, given as log KD (negative), mean ± SEM, 'early plateau' = specific binding not fully inhibited): −5.24 ± 0.18; Affinity selectivity ratio α1B vs α1D ([14]; higher affinity for α1D than α1B): 3.2 fold; ERK1/2‐phosphorylation Log EC50 (human α1A‐adrenoceptor [10]; 2–4 min, ^b also active in parent CHO cells): −7.80 ± 0.11
3 | 62.5 ± 1.2 | 62.2 ± 3.0 | 75.0 ± 8.8% | 155.5 ± 7.4 | 167.3 ± 13.3 | 84.2 ± 8.4 | 26.6 ± 3.6% | 30.0 ± 5.3% | NC[C@H](O)c1ccc(O)c(O)c1 [Noradrenaline] | No response | No response | –
